Assay results as given in ChEMBL document CHEMBL4004802, “α-Glucosidase Inhibitors from Malbranchea flavorosea” (J Nat Prod, 2017).
Calls of active or inactive are those of the source. The rule behind the calls is not given here.

Legend:
[1] = Inhibition of Saccharomyces cerevisiae alpha-glucosidase using p-nitrophenyl-alpha-D-glucopyranoside as substrate after 30 mins
Mus musculus [2] = assay: Antihyperglycemic activity in ICR mouse assessed as decrease in postprandial blood glucose levels at 5 mg/kg administered 30 mins followed by oral sucrose challenge measured after 30 to 120 mins by OSTT; type: functional, organism-based
Mus musculus [3] = assay: Antihyperglycemic activity in nicotinamide/streptozotocin-induced ICR mouse hyperglycemic model assessed as decrease in postprandial blood glucose levels at 5 mg/kg administered 30 mins followed by oral sucrose challenge measured after 30 to 120 mins by OSTT; type: functional, organism-based
Mus musculus [4] = assay: Antihyperglycemic activity in ICR mouse assessed as decrease in postprandial blood glucose levels at 3.2 to 31.6 mg/kg, po administered 30 mins followed by oral sucrose challenge measured after 30 to 120 mins by OSTT; type: functional, organism-based
Mus musculus [5] = assay: Antihyperglycemic activity in nicotinamide/streptozotocin-induced ICR mouse hyperglycemic model assessed as decrease in postprandial blood glucose levels at 3.2 to 31.6 mg/kg, po administered 30 mins followed by oral sucrose challenge measured after 30 to 120 mins by OSTT; type: functional, organism-based

Row | SMILES | IC50 [1] [µM] | Activity (Mus musculus [2]) | Activity (Mus musculus [3]) | Activity (Mus musculus [4]) | Activity (Mus musculus [5])
1 | C[C@H](O)[C@H](O)C[C@H]1OCc2c(O)cccc21 | 2250 |  |  |  | 
2 | O=C1C=Cc2cccc(O)c2CO1 | 1070 |  |  |  | 
3 | C[C@H]1O[C@H](O[C@H]2[C@H](O)[C@@H](O)[C@@H](O[C@H]3[C@H](O)[C@@H](O)C(O)O[C@@H]3CO)O[C@@H]2CO)[C@H](O)[C@@H](O)[C@@H]1N[C@H]1C=C(CO)[C@@H](O)[C@H](O)[C@H]1O (stereo partly drawn) [ACARBOSE] | 500 | Active | Active |  | 
4 | C=C1OC(=O)[C@]2([C@H](C)C=CC(=O)[C@@H]2O)[C@H]1O [MASSARIGENIN C] | 1250 |  |  | Active | Active
